From PMC3578829, “A Small Molecule (Pluripotin) as a Tool for Studying Cancer Stem Cell Biology: Proof of Concept” (PLoS ONE, 2013)

Legend:
[1] = system: HCT-15; assay: Limiting dilution tumorigenicity, s.c. xenograft without protein support; assay type: in vivo, NOD.SCID mice; conditions: HCT-15 treated 5 days with 0.1 µM SC-1
Procedure: (§1) Five day exposures were conducted.
(§2) Six week old female NOD.SCID mice were randomly assigned to each of 20 treatment arms (n = 5/group). Treated and control colon tumor lines were enzymatically harvested and counted prior to dilution in RPMI 1640 (at 10, 100, 1,000, 10,000 cells/inoculum) for subcutaneous injection into the axillary region using a volume of […]. Positive control groups were established such that tumor formation occurred in all mice in approximately one week thus confirming that all tumor lines studied were tumorigenic. Cell inocula for the positive control groups ranged from 1×10^6 to 2.5×10^6. Cell viability of the cell stocks was assessed by trypan blue exclusion prior to dilution for injection and was routinely found to be >95%. Tumor formation was monitored weekly using caliper measurements and the tumor mass was calculated as weight in mg = 1/2×(tumor length)×(tumor width)^2. All experiments were terminated at 120 days or when tumor weight exceeded 2000 mg for any individual mouse. In selected studies, tumor cells were resuspended in Matrigel (50% concentration, BD Biosciences) prior to injection.

[2] = system: KM12; assay: as above; assay type: in vivo, NOD.SCID mice; conditions: KM12 treated 5 days with 0.1 µM SC-1
Procedure: as §1, §2

[3] = system: COLO 205; assay: Soft agar cloning assay; assay type: cell-based
Procedure: (§3) The soft agar colony formation assay has been previously described. In brief, for each treatment condition, triplicate 35 mm^2 dishes were coated with a 1 ml base layer containing 0.7% agarose (Seaplaque: FMC Corp., Rockland, ME). On day 0, cells were dissociated, washed once in growth medium, and subcultured by layering various cell concentrations in 0.5 ml culture medium containing 0.3% agarose onto the base coat. Culture dishes were transferred to a refrigerator (4°C) for 15 min, to room temperature for 10 min, and then to culture incubators. An upper layer of 0.5 ml culture medium was applied on day 0. Cultures were stained with MTT (1 mg/ml) for visualization and imaging at multiple time intervals (day 7 and 14). Cumulative counts of colonies (diameters, >60 µm) and cumulative volumes of CFU (diameters >120 µm) were determined with an Omnicon FAS-II (Bausch & Lomb, Rochester, NY) following calibration with an Omnicon test plate 3 and polystyrene microspheres embedded in soft agar matrix. The evaluable region of each culture dish (35 contiguous fields equivalent to 51% of the cell layer culture volume) was analyzed. Selective scoring of viable cell groups was achieved by adjustment of the instrument detection threshold to exclude images of nonstained cellular material and debris. The data was analyzed with Lotus Symphony software.

[4] = system: HCC-2998; assay: Soft agar cloning assay; assay type: cell-based
Procedure: as §3

[5] = system: HCT-116; assay: Soft agar cloning assay; assay type: cell-based
Procedure: as §3

[6] = system: HT29; assay: Soft agar cloning assay; assay type: cell-based
Procedure: as §3

[7] = system: KM12; assay: Soft agar cloning assay; assay type: cell-based
Procedure: as §3

[8] = system: HCT-116; assay: FACS analysis of putative CSC surface markers; assay type: cell-based; set-up: key to Change in Surface Marker Expression: Y indicates increased putative surface marker expression using the panel of 6 antibodies described in the Material and Methods
Text: (§4) A BD FACsAria (BD Biosciences, San Jose, CA) was utilized for FACS analysis according to standard procedures. The instrument was equipped with a 488 nm 100 mW blue laser, a 638 nm 30 mW red laser, and a 405 nm 50 mW violet laser. The software package Diva 5.0 (BD Biosciences) was used for collection and analysis of data. The alignment of the three lasers in the flow cell was verified prior to running tumor cell samples by running Rainbow Beads (Spherotech). The six colors being used in the analysis were then compensated to account for spectral overlap emitted by the fluorochromes within each laser as well as across the lasers using a semi-automated process. This was done using compensation beads (BD Biosciences) that were coated with anti-mouse antibodies. The beads were incubated with each individual antibody used in the six-color panel for 15 min at room temperature. An unstained tube was also prepared. The unstained beads along with beads stained for each fluorochrome were run individually, recording 5000 events. The data was then run through the Diva software compensation matrices and the amount of “spectral bleed” from other fluorochromes into the fluorochrome of interest’s channel was determined and automatically compensated.
(§5) Treated and untreated cells (1×10^6 cells/condition) were harvested with trypsin EDTA (Invitrogen), washed, and then labeled with a six antibody cocktail (antibodies against the following epitopes: CD44, CD24, CD133, CD326, CD166, and P-glycoprotein in PBS without calcium and magnesium supplemented with 2% FBS) or appropriate isotype control antibodies. An unstained control was also prepared. The specific amounts needed for each labeled antibody were determined through titration studies. All cells were incubated with antibody for 15 minutes on ice and in the dark. The cells were then washed, resuspended in buffer, and analyzed on the FACsAria. For each experimental condition, the isotype control tube was evaluated first and 10,000 events were collected. Forward vs. side scatter gates were then established to eliminate likely debris. Further gating was determined for each conjugated isotype control antibody such that 1% of the population was considered a positive staining event. Cells stained with specific labeled antibodies were then evaluated and 10,000 events collected.

[9] = system: HT29; assay: FACS analysis of putative CSC surface markers; assay type: cell-based; set-up: key to Change in Surface Marker Expression: Y indicates increased putative surface marker expression using the panel of 6 antibodies described in the Material and Methods
Text: as §4, §5

[10] = system: SW-620; assay: FACS analysis of putative CSC surface markers; assay type: cell-based; set-up: key to Change in Surface Marker Expression: Y indicates increased putative surface marker expression using the panel of 6 antibodies described in the Material and Methods
Text: as §4, §5

[11] = soft agar, summary of SC-1 effects
[12] = five days of SC-1 treatment, mean±s.e.m., n = 3

SMILES: Cc1cc(Nc2ncc3c(n2)N(C)C(=O)N(c2cc(NC(=O)c4cccc(C(F)(F)F)c4)ccc2C)C3)n(C)n1 [SC-1]
- Tumor take rate ([1]; 100 cells inoculated s.c.): 0/5
- Tumor take rate ([1]; 1000 cells inoculated s.c.): 0/5
- Tumor take rate ([1]; 10000 cells inoculated s.c.): 0/5
- Tumor take rate ([2]; 100 cells inoculated s.c.): 0/5
- Tumor take rate ([2]; 1000 cells inoculated s.c.): 0/5
- Tumor take rate ([2]; 10000 cells inoculated s.c.): 1/5
- Colony formation in soft agar vs control ([3]; 0.1 µM SC-1 for 24 hrs prior to cloning): increased colony formation was found only at the highest plating density
- Cloning efficiency in soft agar vs control ([3]; 0.1 µM SC-1 for five days): significant increases in cloning efficiencies
- Clonogenicity [3, 11]: Y
- Cloning efficiency in soft agar vs control ([4]; 0.1 µM SC-1 for five days): significant increases in cloning efficiencies
- Clonogenicity [4, 11]: Y
- Cloning efficiency in soft agar vs control ([5]; 0.1 µM SC-1 for five days): significant increases in cloning efficiencies
- Clonogenicity [5, 11]: Y
- Cloning efficiency in soft agar vs control ([6]; 0.1 µM SC-1 for five days): significant increases in cloning efficiencies
- Clonogenicity [6, 11]: Y
- Cloning efficiency in soft agar vs control ([7]; 0.1 µM SC-1 for five days): significant increases in cloning efficiencies
- Clonogenicity [7, 11]: Y
- CD44+ CD24- subpopulation ([8]; after SC-1 treatment): increased
- Change in Surface Marker Expression ([8]; marker CD44+ CD24−, summary of SC-1 effects): Y (CD44+ CD24−)
- Cells expressing the CD133 glycosylated epitope [9, 12]: 27.6±3.6 % positive
- Change in Surface Marker Expression ([9]; marker CD133+, summary of SC-1 effects): Y (CD133+)
- CD44 subpopulation [10, 12]: 74.1±13.4 % positive
- Change in Surface Marker Expression ([10]; marker CD44+, summary of SC-1 effects): Y (CD44+)
